Source: ChEMBL document CHEMBL3621082, “Rational design of proteinprotein interaction inhibitors” (Medchemcomm, 2015)
One block for each compound: values may come before it.

Legend:
[1] = target: Tumour suppressor p53/oncoprotein Mdm2 (Homo sapiens, UniProt P04637+Q00987); experiment: Inhibition of MDM2/p53 (unknown origin) interaction by fluorescence polarization assay; format: protein assay
[2] = target: T1, Urokinase plasminogen activator surface receptor (Homo sapiens, UniProt Q03405); experiment: Binding affinity to uPAR (unknown origin) assessed as reduction in uPA-uPAR protein interaction
[3] = target: T1, Urokinase plasminogen activator surface receptor; experiment: Binding affinity to uPAR (unknown origin)
[4] = Inhibition of HIV1 gp41; parameters: species or system Human immunodeficiency virus 1
[5] = target: Annexin A2/S100-A10 (Homo sapiens, UniProt P07355+P60903); experiment: Inhibition of Annexin A2/Protein S100-A10 (unknown origin) protein interaction by competitive fluorescent binding assay
[6] = Antiproliferative activity against breast cancer cells (unknown origin); format: functional, cell-based; settings: Cancer cell lines
[7] = target: Neuropilin-1 (Homo sapiens, UniProt O14786); experiment: Binding affinity to NRP1 (unknown origin) assessed as reduction in […]VEGFA (165) protein interaction
[8] = Binding affinity to IFNalpha (unknown origin) assessed as reduction in IFNalpha/IFNAR2 interaction; parameters: species or system Homo sapiens
[9] = tested on: MCF7; experiment: Cytotoxicity against human MCF7 cells; format: functional, cell-based
[10] = target: Keap1/Nrf2 (Homo sapiens, UniProt Q14145+Q16236); experiment: Inhibition of Nrf2/Keap1 (unknown origin) protein interaction by fluorescence anisotropy method; format: protein assay
[11] = target: Tumour suppressor protein p53/Mdm4 (Homo sapiens, UniProt O15151+P04637); experiment: Inhibition of MDMX/p53 (unknown origin) interaction; format: protein assay
[12] = target: T2, Alpha-crystallin B chain (Homo sapiens, UniProt P02511); experiment: Binding affinity to CRYAB (unknown origin) assessed as reduction in CRYAB-VEGFA protein interaction
T2 sequence (P02511 whole entry): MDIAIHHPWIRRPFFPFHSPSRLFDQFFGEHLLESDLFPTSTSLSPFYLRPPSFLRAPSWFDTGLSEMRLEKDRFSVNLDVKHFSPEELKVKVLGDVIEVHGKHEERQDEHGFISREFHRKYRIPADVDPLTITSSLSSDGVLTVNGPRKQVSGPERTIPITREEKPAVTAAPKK

T1 sequence (Q03405 whole entry): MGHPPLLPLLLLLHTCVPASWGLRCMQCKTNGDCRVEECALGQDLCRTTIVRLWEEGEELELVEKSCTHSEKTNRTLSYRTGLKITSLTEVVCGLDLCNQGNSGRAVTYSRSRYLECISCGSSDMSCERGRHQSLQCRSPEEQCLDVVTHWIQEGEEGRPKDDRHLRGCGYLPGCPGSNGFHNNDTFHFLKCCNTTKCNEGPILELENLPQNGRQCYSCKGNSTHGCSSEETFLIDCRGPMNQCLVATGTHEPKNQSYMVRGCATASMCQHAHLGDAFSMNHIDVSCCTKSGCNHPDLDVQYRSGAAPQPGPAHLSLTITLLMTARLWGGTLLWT
Chain of Tumour suppressor protein p53/Mdm4 (P04637 whole entry): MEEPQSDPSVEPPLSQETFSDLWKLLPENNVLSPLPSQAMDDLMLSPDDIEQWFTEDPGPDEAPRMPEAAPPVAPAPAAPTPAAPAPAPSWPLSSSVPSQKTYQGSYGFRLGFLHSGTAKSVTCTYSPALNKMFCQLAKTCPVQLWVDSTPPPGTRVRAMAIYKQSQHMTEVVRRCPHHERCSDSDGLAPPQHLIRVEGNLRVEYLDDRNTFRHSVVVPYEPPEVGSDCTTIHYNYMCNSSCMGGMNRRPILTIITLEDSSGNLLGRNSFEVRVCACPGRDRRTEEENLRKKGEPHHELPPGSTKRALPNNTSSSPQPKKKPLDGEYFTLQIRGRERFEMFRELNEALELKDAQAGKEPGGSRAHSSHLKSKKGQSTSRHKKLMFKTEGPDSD
Chain of Tumour suppressor protein p53/Mdm4 (O15151 whole entry): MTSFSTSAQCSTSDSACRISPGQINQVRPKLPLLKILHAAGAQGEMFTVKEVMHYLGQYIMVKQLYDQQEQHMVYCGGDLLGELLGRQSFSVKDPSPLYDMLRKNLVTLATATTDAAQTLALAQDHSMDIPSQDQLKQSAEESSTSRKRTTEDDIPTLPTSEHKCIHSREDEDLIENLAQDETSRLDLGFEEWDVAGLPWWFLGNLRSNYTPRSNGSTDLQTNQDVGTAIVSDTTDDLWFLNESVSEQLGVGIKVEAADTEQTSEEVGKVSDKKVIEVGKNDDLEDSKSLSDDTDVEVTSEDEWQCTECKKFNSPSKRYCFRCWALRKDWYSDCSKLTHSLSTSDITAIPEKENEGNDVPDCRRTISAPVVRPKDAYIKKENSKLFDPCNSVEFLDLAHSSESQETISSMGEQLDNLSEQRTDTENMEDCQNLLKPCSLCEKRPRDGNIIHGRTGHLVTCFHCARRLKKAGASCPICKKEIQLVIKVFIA
Chain of Tumour suppressor p53/oncoprotein Mdm2 (P04637 whole entry): as the sequence (P04637 whole entry) above
Chain of Tumour suppressor p53/oncoprotein Mdm2 (Q00987 whole entry): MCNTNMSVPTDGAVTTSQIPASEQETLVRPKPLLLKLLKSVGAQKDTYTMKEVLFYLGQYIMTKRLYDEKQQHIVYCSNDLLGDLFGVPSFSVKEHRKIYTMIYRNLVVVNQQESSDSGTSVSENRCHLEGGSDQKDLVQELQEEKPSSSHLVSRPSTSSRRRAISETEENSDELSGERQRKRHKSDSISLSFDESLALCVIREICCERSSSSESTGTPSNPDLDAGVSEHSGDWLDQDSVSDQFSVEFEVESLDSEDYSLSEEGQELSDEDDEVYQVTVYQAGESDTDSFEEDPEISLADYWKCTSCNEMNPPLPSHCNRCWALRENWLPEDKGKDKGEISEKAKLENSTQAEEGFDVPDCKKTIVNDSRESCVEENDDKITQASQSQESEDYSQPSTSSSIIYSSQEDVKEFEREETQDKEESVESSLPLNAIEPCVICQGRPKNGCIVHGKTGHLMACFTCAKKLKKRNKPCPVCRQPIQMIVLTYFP
Chain of Annexin A2/S100-A10 (P07355 whole entry): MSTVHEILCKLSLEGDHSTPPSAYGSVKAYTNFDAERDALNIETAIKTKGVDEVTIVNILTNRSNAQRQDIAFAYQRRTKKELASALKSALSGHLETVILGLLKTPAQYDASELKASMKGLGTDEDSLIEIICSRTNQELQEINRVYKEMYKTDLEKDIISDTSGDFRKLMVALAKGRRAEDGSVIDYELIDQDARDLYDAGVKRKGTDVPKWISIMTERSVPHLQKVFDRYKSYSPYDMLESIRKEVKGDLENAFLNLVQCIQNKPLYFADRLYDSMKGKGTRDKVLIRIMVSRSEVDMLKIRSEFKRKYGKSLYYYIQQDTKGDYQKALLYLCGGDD
Chain of Annexin A2/S100-A10 (P60903 whole entry): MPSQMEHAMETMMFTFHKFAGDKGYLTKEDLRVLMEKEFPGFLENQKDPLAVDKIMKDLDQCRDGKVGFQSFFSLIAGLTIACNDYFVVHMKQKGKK
Chain of Keap1/Nrf2 (Q16236 whole entry): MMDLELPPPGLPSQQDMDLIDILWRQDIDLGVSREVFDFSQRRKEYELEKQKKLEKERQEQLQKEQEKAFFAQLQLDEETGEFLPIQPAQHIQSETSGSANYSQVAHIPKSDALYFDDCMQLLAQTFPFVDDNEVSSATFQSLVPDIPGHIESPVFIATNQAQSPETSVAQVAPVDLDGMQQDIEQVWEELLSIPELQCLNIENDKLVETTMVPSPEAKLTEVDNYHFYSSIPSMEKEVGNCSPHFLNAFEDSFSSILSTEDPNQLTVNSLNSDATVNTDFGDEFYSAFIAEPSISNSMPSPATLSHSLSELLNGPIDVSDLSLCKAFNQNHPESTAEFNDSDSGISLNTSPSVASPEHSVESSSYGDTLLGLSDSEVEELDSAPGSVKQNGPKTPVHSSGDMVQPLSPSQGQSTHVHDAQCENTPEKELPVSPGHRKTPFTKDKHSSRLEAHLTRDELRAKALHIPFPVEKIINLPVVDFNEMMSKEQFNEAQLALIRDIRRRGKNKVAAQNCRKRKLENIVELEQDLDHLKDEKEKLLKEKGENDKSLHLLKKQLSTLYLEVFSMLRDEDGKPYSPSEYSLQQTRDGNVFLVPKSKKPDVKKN
Chain of Keap1/Nrf2 (Q14145 whole entry): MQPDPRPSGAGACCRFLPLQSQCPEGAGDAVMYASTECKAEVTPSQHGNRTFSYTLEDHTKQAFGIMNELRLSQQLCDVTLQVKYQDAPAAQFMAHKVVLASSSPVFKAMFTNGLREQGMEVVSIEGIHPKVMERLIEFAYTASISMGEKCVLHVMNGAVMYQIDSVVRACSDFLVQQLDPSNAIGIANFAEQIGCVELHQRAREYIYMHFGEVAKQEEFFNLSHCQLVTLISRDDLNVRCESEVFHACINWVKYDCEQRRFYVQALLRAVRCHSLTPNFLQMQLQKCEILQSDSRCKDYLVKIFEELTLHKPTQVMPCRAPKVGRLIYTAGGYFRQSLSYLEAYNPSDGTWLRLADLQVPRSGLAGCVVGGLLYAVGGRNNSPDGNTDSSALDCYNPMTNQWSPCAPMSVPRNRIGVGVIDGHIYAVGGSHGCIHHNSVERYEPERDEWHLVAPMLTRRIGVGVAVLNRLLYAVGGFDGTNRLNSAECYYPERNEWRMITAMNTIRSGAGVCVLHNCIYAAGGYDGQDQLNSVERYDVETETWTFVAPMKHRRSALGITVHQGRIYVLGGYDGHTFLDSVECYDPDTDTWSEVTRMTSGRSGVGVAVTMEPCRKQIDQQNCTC
Chain of Neuropilin-1 (O14786 whole entry): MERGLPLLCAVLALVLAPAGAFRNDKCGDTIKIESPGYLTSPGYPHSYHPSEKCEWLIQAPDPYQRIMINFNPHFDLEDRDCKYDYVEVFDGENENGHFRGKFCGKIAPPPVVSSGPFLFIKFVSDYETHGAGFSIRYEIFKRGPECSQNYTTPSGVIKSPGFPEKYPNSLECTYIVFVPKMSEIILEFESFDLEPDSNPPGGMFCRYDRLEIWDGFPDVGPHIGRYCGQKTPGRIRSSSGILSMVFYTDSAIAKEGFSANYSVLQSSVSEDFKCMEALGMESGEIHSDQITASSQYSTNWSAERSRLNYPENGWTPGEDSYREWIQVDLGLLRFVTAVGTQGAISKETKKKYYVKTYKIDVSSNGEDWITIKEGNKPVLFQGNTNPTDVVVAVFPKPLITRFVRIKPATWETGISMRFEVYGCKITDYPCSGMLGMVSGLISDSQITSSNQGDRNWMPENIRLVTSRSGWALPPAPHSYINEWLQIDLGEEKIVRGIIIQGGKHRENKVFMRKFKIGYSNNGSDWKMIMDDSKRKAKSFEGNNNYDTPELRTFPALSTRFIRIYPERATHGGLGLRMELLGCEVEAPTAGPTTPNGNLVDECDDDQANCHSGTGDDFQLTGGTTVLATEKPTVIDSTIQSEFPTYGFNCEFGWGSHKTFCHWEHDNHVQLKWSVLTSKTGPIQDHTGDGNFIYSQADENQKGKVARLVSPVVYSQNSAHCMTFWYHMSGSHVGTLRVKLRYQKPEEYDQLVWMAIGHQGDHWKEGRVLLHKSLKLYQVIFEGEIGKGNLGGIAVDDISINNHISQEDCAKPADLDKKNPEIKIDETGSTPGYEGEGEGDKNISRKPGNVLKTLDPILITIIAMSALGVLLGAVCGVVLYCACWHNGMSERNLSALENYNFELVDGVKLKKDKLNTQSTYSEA

Ki [1]: 0.18 µM
Structure (SMILES): O=C(O)c1ccccc1/N=N/C(=N\Nc1cc(S(=O)(=O)O)ccc1O)c1ccccc1

Ki [4]: 1.5 µM
Structure (SMILES): CC(C)C[C@H](NC(=O)c1ccc(NC(=O)[C@@H](N)Cc2c[nH]c3ccccc23)c(OCCc2c[nH]c3ccccc23)c1)C(=O)O

IC50 [7]: 9.3 µM
Structure (SMILES): O=C(NC(=S)Nc1cccc(-c2nc3ccccc3[nH]2)c1)c1ccc2c(c1)OCCO2
IC50 [6]: 0.2 µM

IC50 [8]: 4 µM
Structure (SMILES): CNCc1ccccc1Cc1cccc2ccccc12

Kd [10]: 2.9 µM
Structure (SMILES): CCC(CC)c1ccc(S(=O)(=O)Nc2cc(Sc3nc[nH]n3)c(O)c3ccccc23)cc1

Second part, the compound before the results:

Structure (SMILES): C[C@H]1C[C@H](C)CN(c2cc(Nc3ccccc3C(=O)O)c3c4c(onc24)-c2ccccc2C3=O)C1
IC50 [2]: 10 µM
Kd [3]: 0.31 µM

Structure (SMILES): Cc1ccccc1OCc1nnc(SCC(N)=O)[nH]1
IC50 [5]: 24 µM

Structure (SMILES): COC(=O)[C@@H](CCCCNC(=O)OC(C)(C)C)NC(=O)CI
EC50 [9]: 0.64 µM

Structure (SMILES): C[C@H](CCC(=O)O)[C@H]1CC[C@H]2[C@@H]3CC[C@@H]4C[C@H](O)CC[C@]4(C)[C@H]3CC[C@]12C [LITHOCHOLIC ACID]
Kd [11]: 15 µM

Structure (SMILES): CC(CC(=O)O)C(N)C(=O)O (configuration not stated)
IC50 [12]: 20 µM
